Experimental data from patent US5185349A, “Substituted amide ACAT inhibitors lactone derivatives” (priority 1991, dated 1993).
Counter-ions that a name gives are not always drawn.

Target: T1, acyl-CoA: cholesterol acyltransferase (ACAT) (Oryctolagus cuniculus, UniProt G1SFD9)
T1 construct: in a tissue preparation containing rabbit intestinal microsomes; from tissue; host or cells: rabbit intestine, microsomes
T1 sequence (G1SFD9 1-524): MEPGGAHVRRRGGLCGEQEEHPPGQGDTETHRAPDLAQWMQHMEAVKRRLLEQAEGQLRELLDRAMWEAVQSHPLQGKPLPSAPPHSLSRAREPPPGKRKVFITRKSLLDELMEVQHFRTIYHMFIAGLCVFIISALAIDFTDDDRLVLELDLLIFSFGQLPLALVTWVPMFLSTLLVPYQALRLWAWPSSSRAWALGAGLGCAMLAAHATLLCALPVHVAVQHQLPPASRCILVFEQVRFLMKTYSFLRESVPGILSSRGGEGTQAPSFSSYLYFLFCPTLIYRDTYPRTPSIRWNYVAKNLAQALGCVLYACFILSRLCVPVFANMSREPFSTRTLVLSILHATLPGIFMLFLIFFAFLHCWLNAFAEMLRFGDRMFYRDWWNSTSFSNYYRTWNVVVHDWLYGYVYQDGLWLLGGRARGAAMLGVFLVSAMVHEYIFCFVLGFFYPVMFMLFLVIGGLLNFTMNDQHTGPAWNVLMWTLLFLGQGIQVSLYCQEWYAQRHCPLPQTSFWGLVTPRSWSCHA
Experiment: in vitro ACAT inhibition test (radiolabeled cholesterol oleate formed from radiolabeled oleic acid, rabbit intestinal microsomes)
Type: biochemical
Details: concentration required to inhibit the activity of the enzyme by 50%
Experimental: The ability of representative compounds of the present invention to inhibit ACAT was measured using an in vitro test more fully described in F. J. Field and R. G. Salone, Biochemica et Biophysica 712:557-570 (1982). The test assesses the ability of a test compound to inhibit the acylation of cholesterol by oleic acid by measuring the amount of radiolabeled cholesterol oleate formed from radiolabeled oleic acid in a tissue preparation containing rabbit intestinal microsomes.
The data appear in Table 1 where they are expressed as IC50 values; i.e., the concentration of test compound required to inhibit the activity of the enzyme by 50%.

| IC50 [nM] | SMILES |
| --- | --- |
| 1330 | CC(C)c1cccc(C(C)C)c1NC(=O)C(CC(O)c1ccc(F)cc1)C(=O)O (stereo not drawn) [Example 7, γ-[2,6-bis(1-methylethyl)phenyl]-amino]carbonyl]-4-fluoro-α-hydroxybenzenebutanoic acid monosodium salt] |
| 587 | CC(C)c1cccc(C(C)C)c1NC(=O)C1CC(c2ccc(F)cc2)OC1=O (centres unmarked) [Example 1, N-[2,6-bis(1-methylethyl)phenyl]-5-(4-fluorophenyl)tetrahydro-2-oxo-3-furancarboxamide] |
| 260 | CCCCCCCC1CC(C(=O)Nc2c(C(C)C)cccc2C(C)C)C(=O)O1 (centres unmarked) [Example 2, N-[2,6-bis(1-methylethyl)phenyl]-5-heptyltetrahydro-2-oxo-3-furancarboxamide] |
| 336 | CCCCCCCC1CCC(C(=O)Nc2c(C(C)C)cccc2C(C)C)C(=O)O1 (centres unmarked) [Example 4, N-[2,6-bis(1-methylethyl)phenyl]-6-heptyltetrahydro-2-oxo-2H-pyran-3-carboxamide] |
| 404 | CCCCCCC1CCC(C(=O)Nc2c(C(C)C)cccc2C(C)C)C(=O)O1 (centres unmarked) [Example 3, N-[2,6-bis(1-methylethyl)phenyl]-6-hexyltetrahydro-2-oxo-2H-pyran-3-carboxamide] |
